Data taken from ChEMBL document CHEMBL1143525, “A fluorescent inositol phosphate glycan stimulates lipogenesis in rat adipocytes by extracellular activation alone” (Bioorg Med Chem Lett, 2005).

Key:
[1] = organism: Rattus norvegicus; experiment: Value of Kd measured against rat Adipocytes; type: functional, organism-based
[2] = organism: Rattus norvegicus; experiment: Maximal activity to stimulate lipogenisis in rat adipocytes compared to the maximal effect of insulin; type: functional

NC1[C@H](O[C@H]2C(O)C(O)[C@@H](O)C3OP(=O)(O)O[C@H]32)OC(CO)[C@@H](O)[C@@H]1O (some centres undefined)
Kd [1]: 15.9 µM
Activity [2]: 24%

Nc1c(S(=O)(=O)[O-])cc2c3c(cc(S(=O)(=O)[O-])cc13)C(=O)N(CCNC(=O)CSC[C@@H]1O[C@@H](O[C@H]3[C@H](O)[C@H](O)[C@@H](O)[C@@H]4OP(=O)(O)O[C@@H]34)[C@@H](N)[C@@H](O)[C@@H]1O)C2=O.[K+].[K+]
Kd [1]: 12 µM
Activity [2]: 47%
